Test results as given in PMC11012124, “Synthesis of Novel Triazine-Based Chalcones and 8,9-dihydro-7H-pyrimido[4,5-b][1,4]diazepines as Potential Leads in the Search of Anticancer, Antibacterial and Antifungal Agents” (International Journal of Molecular Sciences, 2024).

Key:
CCRF-CEM = assay: cells; details: Homo sapiens, 48 h; for CC50: read-out: LC50
MALME-3M = assay: cells; details: Homo sapiens, 48 h
HOP-62 = assay: cells; details: Homo sapiens, HOP-62, 48 h; for CC50: read-out: LC50
RPMI-8226 = assay: cells; details: Homo sapiens, RPMI-8226, 48 h; for CC50: read-out: LC50
OVCAR-5 = assay: cells; details: Homo sapiens, OVCAR-5, 48 h; for CC50: read-out: LC50
MDA-MB-435 = assay: cells; details: Homo sapiens, MDA-MB-435, 48 h; for CC50: read-out: LC50
OVCAR-3 = assay: cells; details: Homo sapiens, OVCAR-3, 48 h
T-47D = assay: cells; details: Homo sapiens, T47D, 48 h; for CC50: read-out: LC50
U251 = assay: cells; details: Homo sapiens, U-251, 48 h; for GI50: U251, 48 h; for CC50: read-out: LC50
BT-549 = assay: cells; details: Homo sapiens, BT-549, 48 h; for CC50: read-out: LC50
MOLT-4 = assay: cells; details: Homo sapiens, MOLT-4, 48 h; for CC50: read-out: LC50
COLO 205 = assay: cells; details: Homo sapiens, COLO 205, 48 h; for CC50: read-out: LC50
UO-31 = assay: cells; details: Homo sapiens, UO-31, 48 h; for CC50: read-out: LC50
60 cancer cell lines = assay: NCI-60 one-dose screen (10 μM); assay type: cell-based; details: Homo sapiens; one dose of 10 μM, mean over 60 cancer cell lines; read-out: Mean Growth Percent (MGP)
Text: Additionally, the mean of the growth percentages (MGP) of each compound against all the 60 cancer cell lines is also reported, which is used as one of the selection criteria to continue with tests at five concentration doses.

SF-539 = assay: cells; details: Homo sapiens, SF-539, 48 h; for CC50: read-out: LC50, SF-539, 48 h
[1] = Hemolytic activity, spectrophotometric; assay type: cell-based, human; details: human, human red blood cells (huRBC), 5% hematocrit, 200 μg/mL, 37 °C
A498 = assay: cells; details: Homo sapiens, A498, 48 h; for CC50: read-out: LC50
PC-3 = assay: cells; details: Homo sapiens, PC-3, 48 h
HCT-116 = assay: cells; details: Homo sapiens, HCT-116, 48 h; for CC50: read-out: LC50
HL-60(TB) = assay: cells; details: Homo sapiens, HL-60, 48 h; for CC50: read-out: LC50
OVCAR-4 = assay: cells; details: Homo sapiens, OVCAR-4, 48 h; for CC50: read-out: LC50
NCI-H322M = assay: cells; details: Homo sapiens, 48 h; for CC50: read-out: LC50
SF-295 = assay: cells; details: Homo sapiens, SF-295, 48 h; for CC50: read-out: LC50
UACC-257 = assay: cells; details: Homo sapiens, UACC-257, 48 h; for CC50: read-out: LC50
M14 = assay: cells; details: Homo sapiens, M14, 48 h; for CC50: read-out: LC50
EKVX = assay: cells; details: Homo sapiens, 48 h; for CC50: read-out: LC50
ACHN = assay: cells; details: Homo sapiens, 48 h; for CC50: read-out: LC50
OVCAR-8 = assay: cells; details: Homo sapiens, OVCAR-8, 48 h; for CC50: read-out: LC50
NCI-H226 = assay: cells; details: Homo sapiens, NCI-H226, 48 h; for CC50: read-out: LC50
MCF7 = assay: cells; details: Homo sapiens, MCF7, 48 h; for CC50: read-out: LC50
LOX IMVI = assay: cells; details: Homo sapiens, 48 h; for CC50: read-out: LC50, LOX IMVI, 48 h
SF-268 = assay: cells; details: Homo sapiens, SF-268, 48 h
HS 578T = assay: cells; details: Homo sapiens, 48 h; for CC50: read-out: LC50
HT29 = assay: cells; details: Homo sapiens, HT-29, 48 h; for CC50: read-out: LC50
DU-145 = assay: cells; details: Homo sapiens, DU-145, 48 h; for CC50: read-out: LC50
MDA-MB-231/ATCC = assay: cells; details: Homo sapiens, MDA-MB-231, 48 h
SN12C = assay: cells; details: Homo sapiens, 48 h
UACC-62 = assay: cells; details: Homo sapiens, UACC-62, 48 h

`CN(C)c1nc(NCCNS(=O)(=O)c2ccc(C3=Nc4c(N)nc(N)nc4NC(c4ccc(C(F)(F)F)cc4)C3)cc2)nc(Nc2ccc(F)cc2)n1` (centres unmarked) [31g] gave a GI50 (CCRF-CEM) of 3.24 µM, a CC50 (CCRF-CEM) of 86 µM and a GI50 (MALME-3M) of 11.3 µM. It also gave a CC50 (MALME-3M; read-out: LC50) of 24.2 µM, a GI50 (HOP-62) of 31.4 µM and a CC50 (HOP-62) of 86 µM. For the same compound, the GI50 (RPMI-8226) was 4 µM, the CC50 (RPMI-8226) was 86 µM and the GI50 (OVCAR-5) was 19.9 µM. The CC50 (OVCAR-5) was 86 µM, the GI50 (MDA-MB-435) was 9.13 µM and the CC50 (MDA-MB-435) was 86 µM. It also gave a GI50 (OVCAR-3) of 11.9 µM, a CC50 (OVCAR-3; read-out: LC50) of 86 µM and a GI50 (T-47D) of 12 µM. For the same compound, the CC50 (T-47D) was 86 µM, the GI50 (U251) was 5.52 µM and the CC50 (U251) was 86 µM. The GI50 (BT-549) was 11.8 µM, the CC50 (BT-549) was 32.6 µM and the GI50 (MOLT-4) was 2.74 µM. For the same compound, the CC50 (MOLT-4) was 86 µM, the GI50 (COLO 205) was 9.73 µM and the CC50 (COLO 205) was 21.8 µM. The GI50 (UO-31) was > 86 µM, the CC50 (UO-31) was > 86 µM and the activity at 10 µM (60 cancer cell lines) was 6.81%. For the same compound, the GI50 (SF-539) was 6.22 µM, the CC50 (SF-539) was 24.7 µM and the hemolysis at 24 h, 200 µg/mL [1] was 3%. The GI50 (A498) was 22.2 µM, the CC50 (A498) was 77.4 µM and the GI50 (PC-3) was 4.37 µM. For the same compound, the CC50 (PC-3; read-out: LC50) was 86 µM, the GI50 (HCT-116) was 5.1 µM and the CC50 (HCT-116) was 86 µM. The GI50 (HL-60(TB)) was 4.07 µM, the CC50 (HL-60(TB)) was 86 µM and the GI50 (OVCAR-4) was 25 µM. It also gave a CC50 (OVCAR-4) of 86 µM, a GI50 (NCI-H322M) of 42.5 µM and a CC50 (NCI-H322M) of 86 µM. For the same compound, the GI50 (SF-295) was 12.9 µM, the CC50 (SF-295) was 86 µM and the GI50 (UACC-257) was 23.3 µM. The CC50 (UACC-257) was 86 µM, the GI50 (M14) was 7.87 µM and the CC50 (M14) was 86 µM. The GI50 (EKVX) was 5.52 µM, the CC50 (EKVX) was 86 µM and the GI50 (ACHN) was > 86 µM. The CC50 (ACHN) was > 86 µM, the GI50 (OVCAR-8) was 26.1 µM and the CC50 (OVCAR-8) was 86 µM. The GI50 (NCI-H226) was 37.3 µM, the CC50 (NCI-H226) was 86 µM and the GI50 (MCF7) was 2.87 µM. The CC50 (MCF7) was 21 µM, the GI50 (LOX IMVI) was 3.14 µM and the CC50 (LOX IMVI) was 12 µM. The GI50 (SF-268) was 11.2 µM, the CC50 (SF-268; read-out: LC50) was 86 µM and the GI50 (HS 578T) was 9.03 µM. It also gave a CC50 (HS 578T) of 86 µM, a GI50 (HT29) of 4.88 µM and a CC50 (HT29) of 18.3 µM. It also gave a GI50 (DU-145) of 38.5 µM and a CC50 (DU-145) of 86 µM.

With `Nc1nc(N)c2c(n1)NC(c1ccccc1)CC(c1ccc(Nc3nc(NCCO)nc(Nc4ccc(Cl)cc4)n3)cc1)=N2` (centres unmarked) [33a] the GI50 (CCRF-CEM) was 0.95 µM, the CC50 (CCRF-CEM) was > 100 µM and the GI50 (MALME-3M) was 1.76 µM. For the same compound, the GI50 (HOP-62) was 1.74 µM, the CC50 (HOP-62) was 6.07 µM and the GI50 (RPMI-8226) was 1.38 µM. For the same compound, the CC50 (RPMI-8226) was > 100 µM, the GI50 (OVCAR-5) was 1.94 µM and the CC50 (OVCAR-5) was 7.25 µM. It also gave a GI50 (MDA-MB-435) of 1.74 µM, a CC50 (MDA-MB-435) of 5.78 µM and a GI50 (T-47D) of 1.52 µM. The CC50 (T-47D) was 7.29 µM, the GI50 (U251) was 1.53 µM and the CC50 (U251) was 5.84 µM. For the same compound, the GI50 (BT-549) was 1.77 µM, the CC50 (BT-549) was 5.81 µM and the GI50 (MOLT-4) was < 0.01 µM. The CC50 (MOLT-4) was > 100 µM, the GI50 (COLO 205) was 1.79 µM and the CC50 (COLO 205) was 6.09 µM. For the same compound, the GI50 (UO-31) was 1.87 µM, the CC50 (UO-31) was 9.83 µM and the GI50 (MDA-MB-231/ATCC) was 1.75 µM. For the same compound, the CC50 (MDA-MB-231/ATCC; read-out: LC50) was 6.94 µM, the activity at 10 µM (60 cancer cell lines) was 25.3% and the GI50 (SF-539) was 1.6 µM. The CC50 (SF-539) was 5.85 µM, the hemolysis at 24 h, 200 µg/mL [1] was 8% and the GI50 (A498) was 1.54 µM. For the same compound, the CC50 (A498) was 5.96 µM, the GI50 (PC-3) was 1.59 µM and the GI50 (HCT-116) was 1.51 µM. The CC50 (HCT-116) was 5.33 µM, the GI50 (HL-60(TB)) was 0.32 µM and the CC50 (HL-60(TB)) was > 100 µM. It also gave a GI50 (SN12C) of 1.74 µM, a CC50 (SN12C; read-out: LC50) of 7.2 µM and a GI50 (OVCAR-4) of 1.72 µM. It also gave a CC50 (OVCAR-4) of 8.19 µM, a GI50 (NCI-H322M) of 1.63 µM and a CC50 (NCI-H322M) of 5.67 µM. For the same compound, the GI50 (SF-295) was 1.57 µM, the CC50 (SF-295) was 5.63 µM and the GI50 (UACC-257) was 1.9 µM. For the same compound, the CC50 (UACC-257) was 6.43 µM, the GI50 (M14) was 1.84 µM and the CC50 (M14) was 6.1 µM. The GI50 (EKVX) was 1.64 µM, the CC50 (EKVX) was 6.12 µM and the GI50 (ACHN) was 1.95 µM. The CC50 (ACHN) was 9.76 µM, the GI50 (UACC-62) was 1.84 µM and the CC50 (UACC-62; read-out: LC50) was 6 µM. It also gave a GI50 (OVCAR-8) of 1.46 µM, a CC50 (OVCAR-8) of 6.59 µM and a GI50 (NCI-H226) of 11.5 µM. It also gave a CC50 (NCI-H226) of 85 µM, a GI50 (MCF7) of 1.51 µM and a CC50 (MCF7) of 6.1 µM. For the same compound, the GI50 (LOX IMVI) was 1.54 µM, the CC50 (LOX IMVI) was 5.66 µM and the GI50 (SF-268) was 1.87 µM. For the same compound, the GI50 (HS 578T) was 1.98 µM, the CC50 (HS 578T) was > 100 µM and the GI50 (HT29) was 1.77 µM. It also gave a CC50 (HT29) of 6.28 µM, a GI50 (DU-145) of 1.8 µM and a CC50 (DU-145) of 6.34 µM.
